The text below walks through data of ChEMBL document CHEMBL1201862, “PubChem BioAssay data set” (2004).

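All cell lines were grown in 96-well plates and treated with compound for 48 hours. Abbreviation: GI50, concentration required for 50% inhibition of growth.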 Activity calls are given as the source filed them. Cut-off read from the data, not from the text of the source: active = GI50 up to about 1.1 µM and inactive = higher.

Assay in all cases: NCI anticancer screen, dose series, 48 h
For test [1], the system named is M14.
For test [2], the system named is HT-29.
The subject of test [3] is HCC 2998.
The test system of test [4] is SK-MEL-5.
Test [5] concerns SK-MEL-2.
The test system of test [6] is SNB-78.
In test [7] the test system is OVCAR-8.
In test [8] the test system is MOLT-4.
Test [9] relates to IGROV-1.
Test [10] relates to SN12C.
Test [11] concerns RXF 393.
Test [12] relates to U-251.
Test [13] has as its system SW-620.
In test [14] the test system is SNB-19.
The test system of test [15] is NCI/ADR-RES.
Test [16] has as its system MDA-N.
The test system of test [17] is PC-3.
Test [18] concerns BT-549.
In test [19] the test system is Hs-578T.

Regarding `O=C1CCC2(c3ccc(F)cc3)Nc3ncccc3N12` (configuration not stated), the GI50 in [1], in [2], in test [3], in test [4], in [5] and in [6] was > 100 µM (inactive) in each case. The GI50 in test [7], in [8], in test [9], in [10], in test [11] and in [12] was > 100 µM (inactive) each time. Also, in test [13], the GI50 was > 100 µM (inactive).

As for `Cc1cc(=O)cc2sc3c(C)cccc3nc1-2`, the GI50 was 21.8 µM (inactive) in test [1]; 35.1 µM (inactive) in test [2]; 51.4 µM (inactive) in test [3]; 17.7 µM (inactive) in [4]; 17.7 µM (inactive) in test [5]; 53.6 µM (inactive) in test [6]. Further, the GI50 in test [7] was 27.7 µM (inactive); in test [8] it was 14.4 µM (inactive); in [14], > 100 µM (inactive); in [9], 24.9 µM (inactive); in test [10], 23.6 µM (inactive); in [11], 35.4 µM (inactive). Besides, the GI50 in test [12] was 37.1 µM (inactive); in [13], 4.56 µM (inactive).

For `CC1=C(O)C(=O)C2C(=O)C1C(C)C2c1ccc(Cl)cc1` (configuration not stated), the GI50 in test [1], in test [2], in test [3], in test [4], in [5] and in test [6] was > 100 µM (inactive) each time. In addition, the GI50 in [7], in test [8], in test [14], in test [9], in test [11] and in test [12] was > 100 µM (inactive) each time. The GI50 in test [13] is > 100 µM (inactive).

Take `O=C(Nc1sccc1S(=O)(=O)c1ccccc1)c1cccnc1`: the GI50 in test [1] is 6.08 µM (inactive); in test [2] it was 5.68 µM (inactive); in test [15] it was 3.96 µM (inactive); in [3], 21.3 µM (inactive); in [16] it was 1.02 µM (active); in test [4] it was 3.61 µM (inactive). The GI50 in test [5] is 6.71 µM (inactive); in test [17] it was 37.6 µM (inactive); in test [7], 22.7 µM (inactive); in test [8] it was 5.35 µM (inactive); in test [14], > 44.5 µM (inactive); in [9] it was 9.02 µM (inactive). Moreover, the GI50 was 9.86 µM (inactive) in test [10]; > 37.1 µM (inactive) in test [18]; 14.9 µM (inactive) in [11]; 2.97 µM (inactive) in test [12]; > 46.7 µM (inactive) in [19]; 5.92 µM (inactive) in [13].

On to `COc1ccc(CC(COS(=O)(=O)c2ccc(C)cc2)NS(=O)(=O)c2ccc(C)cc2)cc1` (configuration not stated), for which the GI50 in test [1] was 8.34 µM (inactive); in test [2], 10.2 µM (inactive); in test [15], 11 µM (inactive); in test [3] it was 11.9 µM (inactive); in test [16] it was 19.6 µM (inactive); in test [4], 9.02 µM (inactive). Moreover, the GI50 in test [5] is 15.1 µM (inactive); in [17] it was 14.8 µM (inactive); in [7], 15.3 µM (inactive); in test [8], > 100 µM (inactive); in test [14], 12.6 µM (inactive); in test [9] it was 7.87 µM (inactive). The GI50 was 15.4 µM (inactive) in test [10]; 5.71 µM (inactive) in test [18]; 3.27 µM (inactive) in test [11]; 11.8 µM (inactive) in test [12]; 15.6 µM (inactive) in test [19]; 10.9 µM (inactive) in test [13].

Regarding `CC1CC(C)CN(S(=O)(=O)c2cc(Cl)c(Oc3ccc([N+](=O)[O-])cc3Cl)c(Cl)c2)C1` (configuration not stated), the GI50 in test [1], in test [2], in [15], in test [3], in test [16] and in test [4] was > 100 µM (inactive) each time. Besides, the GI50 in [5], in [17], in [7], in test [8], in test [14] and in test [9] was > 100 µM (inactive) throughout. Besides, the GI50 in test [10], in [18], in test [11], in test [12], in test [19] and in [13] was > 100 µM (inactive) in each case.

On to `COC12C=C(C)C(CC1)CC2C(=O)O` (configuration not stated), for which the GI50 in test [1], in test [2], in test [3], in [4], in test [5] and in test [6] was > 100 µM (inactive) in each case. Also, the GI50 in test [7], in test [8], in test [14], in test [9], in test [10] and in [11] was > 100 µM (inactive) each time. Further, the GI50 in test [12] and in test [13] was > 100 µM (inactive) throughout.

On to `CCOC(=O)c1c(C)n(-c2ccc(C)cc2)c2c1cc(O)c1[nH]c3c(c12)CCCC3`, for which the GI50 is 16.6 µM (inactive) in test [1]; 14.9 µM (inactive) in test [2]; 39.8 µM (inactive) in test [15]; 14.6 µM (inactive) in test [3]; 20.6 µM (inactive) in [16]; 11.9 µM (inactive) in test [4]. The GI50 in test [5] was 12.4 µM (inactive); in test [17], 12.9 µM (inactive); in [7] it was 22.4 µM (inactive); in [8] it was 8.77 µM (inactive); in [14], 19.4 µM (inactive); in test [9] it was 13.8 µM (inactive). For the same compound, the GI50 in [10] was 27.5 µM (inactive); in [18] it was 10.1 µM (inactive); in test [11] it was 12 µM (inactive); in test [12] it was 14.8 µM (inactive); in test [19], < 0.01 µM (active); in test [13] it was 17.6 µM (inactive).

With `Nc1nc2[nH]cnc2c(=O)[nH]1`, the GI50 in test [1], in [2], in [4], in test [5], in test [6] and in test [7] was > 100 µM (inactive) each time. In addition, the GI50 in test [9], in [10], in test [11], in test [12] and in test [13] was > 100 µM (inactive) in each case.
